Test results from ChEMBL document CHEMBL5465560, “Selectivity Literature for EUbOPEN Chemogenomic Library” (2024).

Legend:
[1] = target: T1, Aurora kinase A (Homo sapiens) (UniProt O14965); experiment: Selectivity interaction (Kinase panel (KiNativ target engagement assay in Jurkat cells)) EUB0001635a STK6; type: cell-based; settings: at 1 µM
T1 sequence (whole entry): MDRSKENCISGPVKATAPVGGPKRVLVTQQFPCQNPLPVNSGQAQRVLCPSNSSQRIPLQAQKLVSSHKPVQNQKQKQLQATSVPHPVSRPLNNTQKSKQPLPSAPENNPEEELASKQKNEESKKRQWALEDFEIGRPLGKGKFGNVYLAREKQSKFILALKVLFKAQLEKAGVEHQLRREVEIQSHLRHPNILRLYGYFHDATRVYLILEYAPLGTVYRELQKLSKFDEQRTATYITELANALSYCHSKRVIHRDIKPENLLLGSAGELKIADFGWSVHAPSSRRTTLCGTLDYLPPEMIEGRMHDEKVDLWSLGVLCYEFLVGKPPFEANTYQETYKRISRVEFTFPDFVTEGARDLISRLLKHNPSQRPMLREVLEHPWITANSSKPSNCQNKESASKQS

[2] = target: T2, Ribosomal protein S6 kinase alpha-1 (Homo sapiens, UniProt Q15418); experiment: Selectivity interaction (Kinase panel (KiNativ target engagement assay in Jurkat cells)) EUB0001635a RPS6KA1; type: cell-based; settings: Selectivity number of off-targets 0.0, Selectivity number of targets 233.0, Source Knowledge https://www.sciencedirect.com/science/article/pii/S2451945619300674?via%3Dihub, at 1 µM
[3] = target: Bromodomain-containing protein 4 (Homo sapiens, UniProt O60885); settings: at 10 µM
[4] = target: Casein kinase I isoform gamma-2 (Homo sapiens) (UniProt P78368); experiment: Selectivity interaction (Kinase panel (Invitrogen)) EUB0000639a CSNK1G2; settings: at 200 nM
[5] = target: Insulin receptor-related protein (Homo sapiens) (UniProt P14616); experiment: Selectivity interaction (KinomeScan (DiscoverX)) EUB0001049a INSRR; settings: at 1 µM
[6] = target: T2, Ribosomal protein S6 kinase alpha-1; experiment: Selectivity interaction (KinomeScan (DiscoverX)) EUB0001049a RPS6KA1; settings: at 1 µM
[7] = target: T3, Receptor-interacting serine/threonine-protein kinase 1 (Homo sapiens) (UniProt Q13546); experiment: Selectivity interaction (KinomeScan (DiscoverX)) EUB0000695a RIPK1; settings: at 100 nM
T3 sequence (whole entry): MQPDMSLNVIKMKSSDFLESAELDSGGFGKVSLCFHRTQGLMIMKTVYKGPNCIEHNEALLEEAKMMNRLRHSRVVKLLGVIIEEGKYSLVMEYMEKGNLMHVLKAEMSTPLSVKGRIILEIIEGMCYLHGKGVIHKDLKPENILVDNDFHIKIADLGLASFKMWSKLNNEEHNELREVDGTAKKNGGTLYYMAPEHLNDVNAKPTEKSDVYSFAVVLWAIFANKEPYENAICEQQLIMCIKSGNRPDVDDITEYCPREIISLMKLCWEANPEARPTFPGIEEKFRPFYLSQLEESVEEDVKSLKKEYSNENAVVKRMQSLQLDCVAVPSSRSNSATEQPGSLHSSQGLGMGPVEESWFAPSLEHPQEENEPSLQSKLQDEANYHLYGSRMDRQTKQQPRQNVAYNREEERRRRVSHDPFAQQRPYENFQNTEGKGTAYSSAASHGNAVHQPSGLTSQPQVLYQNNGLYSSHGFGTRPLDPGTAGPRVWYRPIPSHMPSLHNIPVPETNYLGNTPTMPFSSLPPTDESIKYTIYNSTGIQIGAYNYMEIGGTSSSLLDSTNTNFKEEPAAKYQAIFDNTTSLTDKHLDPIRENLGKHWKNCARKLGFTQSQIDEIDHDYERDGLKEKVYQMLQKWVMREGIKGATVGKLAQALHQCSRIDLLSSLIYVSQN

[8] = Selectivity interaction (KinomeScan (DiscoverX)) EUB0000595a CDK2H; settings: at 10 µM
[9] = target: Mitogen-activated protein kinase kinase kinase 4 (Homo sapiens) (UniProt Q9Y6R4); experiment: Selectivity interaction (KinomeScan (DiscoverX)) EUB0000045b MAP3K4
[10] = target: Serine/threonine-protein kinase PRP4 homolog (Homo sapiens) (UniProt Q13523); experiment: Selectivity interaction (KinomeScan (DiscoverX)) EUB0000045b PRPF4B
[11] = target: T4, Tyrosine-protein kinase JAK3 (Homo sapiens) (UniProt P52333); experiment: Selectivity interaction (ActivX KiNativ screen (ex vivo kinase selectivity in human PBMCs)) EUB0001619a JAK3; type: cell-based; settings: PBMC, at 1 µM
T4 sequence (whole entry): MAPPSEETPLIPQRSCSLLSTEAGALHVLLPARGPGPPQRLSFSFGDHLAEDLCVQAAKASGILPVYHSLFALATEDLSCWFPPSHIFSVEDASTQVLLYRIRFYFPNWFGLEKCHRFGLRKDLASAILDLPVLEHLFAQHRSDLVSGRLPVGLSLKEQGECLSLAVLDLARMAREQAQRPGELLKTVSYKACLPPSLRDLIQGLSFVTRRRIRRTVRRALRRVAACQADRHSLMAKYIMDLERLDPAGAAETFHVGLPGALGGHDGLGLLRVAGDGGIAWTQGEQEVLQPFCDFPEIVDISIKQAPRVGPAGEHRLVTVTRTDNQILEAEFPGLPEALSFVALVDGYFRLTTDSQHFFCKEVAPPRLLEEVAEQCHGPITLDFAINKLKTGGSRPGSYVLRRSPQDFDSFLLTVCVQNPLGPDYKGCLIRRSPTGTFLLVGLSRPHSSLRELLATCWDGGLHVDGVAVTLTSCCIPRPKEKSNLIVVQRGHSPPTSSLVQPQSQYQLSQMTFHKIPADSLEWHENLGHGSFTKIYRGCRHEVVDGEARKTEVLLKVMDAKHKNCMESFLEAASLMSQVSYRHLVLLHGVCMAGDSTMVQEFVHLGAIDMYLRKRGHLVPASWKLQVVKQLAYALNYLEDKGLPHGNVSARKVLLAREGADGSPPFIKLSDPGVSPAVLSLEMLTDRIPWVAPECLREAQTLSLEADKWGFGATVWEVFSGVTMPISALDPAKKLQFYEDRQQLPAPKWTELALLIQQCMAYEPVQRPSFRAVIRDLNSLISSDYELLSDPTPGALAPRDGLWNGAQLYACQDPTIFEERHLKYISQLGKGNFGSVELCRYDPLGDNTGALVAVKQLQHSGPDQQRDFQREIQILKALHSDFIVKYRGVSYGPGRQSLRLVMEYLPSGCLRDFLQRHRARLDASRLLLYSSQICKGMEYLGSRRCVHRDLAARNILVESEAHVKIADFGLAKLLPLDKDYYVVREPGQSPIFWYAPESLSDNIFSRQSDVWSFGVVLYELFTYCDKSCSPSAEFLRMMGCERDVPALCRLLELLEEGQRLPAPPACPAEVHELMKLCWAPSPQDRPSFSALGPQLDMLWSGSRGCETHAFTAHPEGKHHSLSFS

T2 sequence (Q15418 whole entry): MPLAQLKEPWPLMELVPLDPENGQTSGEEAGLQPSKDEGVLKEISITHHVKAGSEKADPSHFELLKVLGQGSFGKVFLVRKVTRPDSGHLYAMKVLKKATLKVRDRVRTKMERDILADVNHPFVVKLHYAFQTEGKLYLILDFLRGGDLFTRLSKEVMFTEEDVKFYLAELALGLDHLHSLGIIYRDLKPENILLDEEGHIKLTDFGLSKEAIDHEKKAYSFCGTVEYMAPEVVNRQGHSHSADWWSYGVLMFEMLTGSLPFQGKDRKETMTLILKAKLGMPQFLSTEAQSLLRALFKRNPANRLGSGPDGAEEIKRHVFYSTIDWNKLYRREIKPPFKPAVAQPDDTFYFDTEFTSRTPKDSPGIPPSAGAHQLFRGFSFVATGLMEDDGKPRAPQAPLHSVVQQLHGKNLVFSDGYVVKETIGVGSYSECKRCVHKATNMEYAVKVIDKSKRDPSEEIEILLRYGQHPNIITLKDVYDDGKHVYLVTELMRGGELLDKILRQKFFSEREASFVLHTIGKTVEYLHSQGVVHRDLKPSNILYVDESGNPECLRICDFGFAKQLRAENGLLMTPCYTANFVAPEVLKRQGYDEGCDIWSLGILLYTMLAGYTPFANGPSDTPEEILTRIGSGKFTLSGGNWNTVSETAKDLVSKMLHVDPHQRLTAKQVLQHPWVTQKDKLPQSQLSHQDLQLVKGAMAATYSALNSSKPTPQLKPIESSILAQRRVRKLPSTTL
Serine/threonine-protein kinase PRP4 homolog (Homo sapiens), sequence (Q13523 whole entry): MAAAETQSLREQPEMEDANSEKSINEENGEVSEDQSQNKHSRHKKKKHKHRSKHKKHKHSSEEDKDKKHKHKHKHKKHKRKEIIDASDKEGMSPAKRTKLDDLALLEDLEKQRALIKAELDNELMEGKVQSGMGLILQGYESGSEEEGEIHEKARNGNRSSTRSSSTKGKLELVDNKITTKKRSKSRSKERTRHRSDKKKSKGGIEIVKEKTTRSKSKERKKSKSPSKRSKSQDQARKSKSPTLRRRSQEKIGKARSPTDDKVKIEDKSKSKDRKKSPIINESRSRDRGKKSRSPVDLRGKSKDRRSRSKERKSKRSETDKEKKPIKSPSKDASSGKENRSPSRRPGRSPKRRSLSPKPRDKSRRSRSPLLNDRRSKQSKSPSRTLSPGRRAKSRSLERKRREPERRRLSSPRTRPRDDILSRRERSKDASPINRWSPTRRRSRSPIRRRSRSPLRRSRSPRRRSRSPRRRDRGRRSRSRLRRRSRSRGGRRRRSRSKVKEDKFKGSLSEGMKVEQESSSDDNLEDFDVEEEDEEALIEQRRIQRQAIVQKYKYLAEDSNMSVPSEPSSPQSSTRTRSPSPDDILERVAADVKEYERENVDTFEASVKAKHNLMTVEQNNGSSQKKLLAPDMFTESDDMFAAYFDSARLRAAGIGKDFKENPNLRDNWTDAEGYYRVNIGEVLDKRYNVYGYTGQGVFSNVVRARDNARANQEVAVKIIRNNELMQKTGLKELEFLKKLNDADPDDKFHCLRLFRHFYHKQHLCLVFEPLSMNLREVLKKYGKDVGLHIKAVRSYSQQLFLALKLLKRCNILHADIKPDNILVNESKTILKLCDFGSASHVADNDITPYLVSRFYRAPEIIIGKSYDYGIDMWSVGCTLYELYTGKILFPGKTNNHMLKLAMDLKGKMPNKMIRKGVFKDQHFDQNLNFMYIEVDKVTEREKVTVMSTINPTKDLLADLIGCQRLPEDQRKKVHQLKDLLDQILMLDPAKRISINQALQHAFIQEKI
Mitogen-activated protein kinase kinase kinase 4 (Homo sapiens), sequence (Q9Y6R4 whole entry): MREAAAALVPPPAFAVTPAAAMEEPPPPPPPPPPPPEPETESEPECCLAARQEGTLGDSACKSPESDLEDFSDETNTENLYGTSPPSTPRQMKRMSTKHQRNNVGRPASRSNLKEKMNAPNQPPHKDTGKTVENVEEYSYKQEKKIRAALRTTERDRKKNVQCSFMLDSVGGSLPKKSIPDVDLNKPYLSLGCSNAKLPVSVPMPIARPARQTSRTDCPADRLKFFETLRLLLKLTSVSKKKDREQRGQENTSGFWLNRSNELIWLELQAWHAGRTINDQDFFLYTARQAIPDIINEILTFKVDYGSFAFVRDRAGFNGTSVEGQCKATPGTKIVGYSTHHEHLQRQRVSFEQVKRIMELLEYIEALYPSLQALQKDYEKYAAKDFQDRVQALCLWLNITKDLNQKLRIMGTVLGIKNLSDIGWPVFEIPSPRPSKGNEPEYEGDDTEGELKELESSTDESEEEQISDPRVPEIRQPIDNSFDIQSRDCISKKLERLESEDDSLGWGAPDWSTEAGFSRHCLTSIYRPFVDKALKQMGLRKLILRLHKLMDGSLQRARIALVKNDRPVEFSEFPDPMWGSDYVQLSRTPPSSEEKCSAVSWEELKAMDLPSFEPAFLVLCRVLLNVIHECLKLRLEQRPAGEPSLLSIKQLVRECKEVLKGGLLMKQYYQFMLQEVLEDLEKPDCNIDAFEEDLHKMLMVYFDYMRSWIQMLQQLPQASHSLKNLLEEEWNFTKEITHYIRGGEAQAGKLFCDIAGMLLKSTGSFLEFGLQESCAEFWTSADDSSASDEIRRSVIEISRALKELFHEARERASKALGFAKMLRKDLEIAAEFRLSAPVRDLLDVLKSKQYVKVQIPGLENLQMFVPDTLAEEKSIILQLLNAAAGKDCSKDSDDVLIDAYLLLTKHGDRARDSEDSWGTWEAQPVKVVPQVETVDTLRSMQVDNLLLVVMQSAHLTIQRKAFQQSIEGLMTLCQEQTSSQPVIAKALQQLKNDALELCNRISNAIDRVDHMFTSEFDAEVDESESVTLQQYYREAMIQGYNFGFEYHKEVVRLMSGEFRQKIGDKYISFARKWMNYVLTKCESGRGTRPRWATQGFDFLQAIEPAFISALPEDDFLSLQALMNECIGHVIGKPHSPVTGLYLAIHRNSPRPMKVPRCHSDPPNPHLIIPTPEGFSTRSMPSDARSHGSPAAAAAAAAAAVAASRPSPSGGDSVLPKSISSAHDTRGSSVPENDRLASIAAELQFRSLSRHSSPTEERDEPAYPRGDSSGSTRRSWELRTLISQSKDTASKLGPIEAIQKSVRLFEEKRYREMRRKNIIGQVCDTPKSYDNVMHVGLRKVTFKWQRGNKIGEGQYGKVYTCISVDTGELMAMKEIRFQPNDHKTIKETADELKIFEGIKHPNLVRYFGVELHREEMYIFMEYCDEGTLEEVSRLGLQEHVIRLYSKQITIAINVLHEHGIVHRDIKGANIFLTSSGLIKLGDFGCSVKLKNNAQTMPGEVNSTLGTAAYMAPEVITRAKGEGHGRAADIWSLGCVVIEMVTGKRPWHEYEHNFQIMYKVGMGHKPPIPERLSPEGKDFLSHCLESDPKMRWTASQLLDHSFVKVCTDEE
Insulin receptor-related protein (Homo sapiens), sequence (P14616 27-742 limits assumed): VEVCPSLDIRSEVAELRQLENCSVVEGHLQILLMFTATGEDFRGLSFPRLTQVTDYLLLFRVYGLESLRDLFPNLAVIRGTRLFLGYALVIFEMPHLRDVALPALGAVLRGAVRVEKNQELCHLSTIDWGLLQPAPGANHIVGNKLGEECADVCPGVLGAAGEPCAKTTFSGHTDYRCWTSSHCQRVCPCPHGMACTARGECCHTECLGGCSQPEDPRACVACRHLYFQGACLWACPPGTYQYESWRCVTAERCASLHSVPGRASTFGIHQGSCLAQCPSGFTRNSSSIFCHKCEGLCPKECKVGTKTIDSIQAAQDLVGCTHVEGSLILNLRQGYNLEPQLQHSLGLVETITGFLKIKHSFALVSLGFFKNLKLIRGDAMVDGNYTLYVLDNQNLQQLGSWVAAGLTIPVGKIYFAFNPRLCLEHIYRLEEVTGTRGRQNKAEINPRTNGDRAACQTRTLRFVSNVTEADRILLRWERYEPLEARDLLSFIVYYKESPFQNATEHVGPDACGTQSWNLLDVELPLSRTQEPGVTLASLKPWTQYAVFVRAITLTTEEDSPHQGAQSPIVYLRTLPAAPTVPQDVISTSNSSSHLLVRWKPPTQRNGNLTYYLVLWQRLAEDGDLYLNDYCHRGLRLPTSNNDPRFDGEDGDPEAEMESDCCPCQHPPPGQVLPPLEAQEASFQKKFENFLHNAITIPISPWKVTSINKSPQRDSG
Insulin receptor-related protein (Homo sapiens), sequence (P14616 747-1297 limits assumed): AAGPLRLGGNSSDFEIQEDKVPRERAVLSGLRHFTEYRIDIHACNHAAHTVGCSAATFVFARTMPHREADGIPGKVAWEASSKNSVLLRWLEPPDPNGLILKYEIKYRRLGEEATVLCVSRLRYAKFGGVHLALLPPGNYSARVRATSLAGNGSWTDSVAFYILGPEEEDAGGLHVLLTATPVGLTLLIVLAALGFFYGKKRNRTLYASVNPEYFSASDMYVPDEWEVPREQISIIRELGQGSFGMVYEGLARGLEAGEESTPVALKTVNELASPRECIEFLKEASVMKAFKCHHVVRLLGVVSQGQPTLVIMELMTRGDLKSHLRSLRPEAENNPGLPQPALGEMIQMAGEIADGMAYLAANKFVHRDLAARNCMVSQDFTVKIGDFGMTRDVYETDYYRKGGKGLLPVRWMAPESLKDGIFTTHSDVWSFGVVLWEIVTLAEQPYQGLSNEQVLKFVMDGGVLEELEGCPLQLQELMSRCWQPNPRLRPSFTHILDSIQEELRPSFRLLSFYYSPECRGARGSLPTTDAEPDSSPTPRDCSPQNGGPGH
Casein kinase I isoform gamma-2 (Homo sapiens), sequence (P78368 whole entry, looked up, canonical isoform): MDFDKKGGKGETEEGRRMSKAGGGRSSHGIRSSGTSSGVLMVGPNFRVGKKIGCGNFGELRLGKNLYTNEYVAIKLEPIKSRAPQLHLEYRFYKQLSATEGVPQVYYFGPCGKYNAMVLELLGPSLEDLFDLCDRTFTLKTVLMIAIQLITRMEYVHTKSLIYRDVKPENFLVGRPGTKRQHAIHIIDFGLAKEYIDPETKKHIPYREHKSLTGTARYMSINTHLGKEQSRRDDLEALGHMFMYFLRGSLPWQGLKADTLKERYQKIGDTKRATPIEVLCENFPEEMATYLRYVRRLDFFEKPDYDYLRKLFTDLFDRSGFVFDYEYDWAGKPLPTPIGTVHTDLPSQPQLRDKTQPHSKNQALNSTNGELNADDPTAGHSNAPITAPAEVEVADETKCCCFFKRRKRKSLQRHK

Molecule C=CC(=O)Nc1ccc(C(=O)Nc2[nH]nc3c2CN(C(=O)N[C@H](CN(C)C)c2ccccc2)C3(C)C)cc1 has a % of engagement [1] of 14.1% and a % of engagement [2] of -0.1%.

Cc1cc([C@@H](C)Nc2ccccc2C(=O)O)c2nc(N3CCOCC3)cc(=O)n2c1 [AZD-6482] gave a % of control [3] of 82%.

CC[C@@H]1[C@H](F)C(=O)N[C@@H]1COc1nccc2cc(C(N)=O)c(OC)cc12 [ZIMLOVISERTIB] gave a % of inhibition [4] of 64.8%.

Work on COc1cc(Nc2nc(C)cc(-c3cnn4nc(OC)ccc34)n2)cc(C(F)(F)F)c1 yielded a % of control [5] of 86% and a % of control [6] of 88%.

For Cc1cc(F)c(C(=O)Nc2cccc(-c3nncn3C(C)C)n2)cc1-n1cnc(C2CC2)c1, the % of control [7] was 89%.

With COCC(=O)NC/C=C/c1ccc2ncnc(Nc3ccc(Oc4ccc(C)nc4)c(C)c3)c2c1 [CP-724714] the % of control [8] was 100%.

Molecule C=CC(=O)Nc1cc(-n2c(=O)ccc3cnc4ccc(-c5ccc(NS(C)(=O)=O)cc5)cc4c32)ccc1C has a % of control ([9]; at 1 µM) of 89%, a % of control ([9]; at 10 µM) of 100% and a % of control ([10]; at 1 µM) of 95%. For the same molecule, the % of control ([10]; at 10 µM) was 89%.

With N#Cc1cccc(-c2c[nH]c3ncnc(N4CCOCC4)c23)c1 the % of inhibition [11] was 6%.
